Experiment [1] deals with IL-17A(FLAG-Tagged): IL-17RA(His-Tagged) (Homo sapiens, UniProt Q16552, K93Q). The experiment in a line: IL-17A(FLAG-Tagged): IL-17RA(His-Tagged) Binding Disruption Eu-HTRF Assay. The following applies: IL-17A/IL-17RA binding disruption, simple average if tested more than once. A digest of the protocol: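 IC50 comes from a one-site competition fit of the HTRF 665/620 nm ratio. Compound dilutions (2-fold, 22 points) were held 1 h rt with FLAG-tagged IL-17A dimer, then His-tagged IL-17RA plus Eu-cryptate anti-FLAG and D2 anti-His antibodies were added for 2 h rt.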
UniProt Q16552, sequence (Q16552 with tags, fused parts or gaps K93Q): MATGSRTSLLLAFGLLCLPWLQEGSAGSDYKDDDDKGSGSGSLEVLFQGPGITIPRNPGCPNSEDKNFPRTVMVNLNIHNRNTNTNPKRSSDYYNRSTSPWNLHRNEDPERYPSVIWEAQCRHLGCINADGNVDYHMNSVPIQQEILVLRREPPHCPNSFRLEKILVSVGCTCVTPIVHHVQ

Experiment [2] has as its system IL-17A-induced G-CSF production in human normal keratinocyte (NHK). Briefly: NHK Assay: IL-17A-induced G-CSF production in human normal keratinocytes. It is filed as cell-based. Conditions: adult normal human keratinocytes, IL-17A 5 ng/mL, 24 h, simple average if tested more than once. The gist of the method: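 Adult normal human keratinocytes were seeded at 3000-4000 cells/well. Recombinant human IL-17A was pre-incubated 1 h at rt with titrated compound, then added to cells (final 5 ng/mL IL-17A, 0.2% DMSO, 5% FBS) for 24 h at 37° C. Supernatant G-CSF was measured by HTRF against a standard curve to give IC50.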

On to `Cc1nonc1C(=O)N[C@H](c1cn2ncc([C@H](NC(=O)C(C)CC(F)(F)F)C3CC3)cc2n1)C1CCC(F)(F)CC1` (single isomer, unassigned) [Example 347, N—((S)-(7-((R)-Cyclopropyl((S*)-4,4,4-trifluoro-2-methylbutanamido)methyl)imidazo[1,2-b]pyridazin-2-yl)(4,4-difluorocyclohexyl)methyl)-4-methyl-1,2,5-oxadiazole-3-carboxamide], for which the IC50 – broadly, the concentration needed to halve the response being measured – is 470 nM in experiment [1] and 1600 nM in experiment [2].

Take `Cc1nonc1C(=O)N[C@H](c1cn2ncc([C@H](NC(=O)C(F)C3CCC3)C3CC3)cc2n1)C1CCC(F)(F)CC1` (single isomer, unassigned) [Example 348, N—((S)-(7-((R)-((R*)-2-Cyclobutyl-2-fluoroacetamido)(cyclopropyl)methyl)imidazo[1,2-b]pyridazin-2-yl)(4,4-difluorocyclohexyl)methyl)-4-methyl-1,2,5-oxadiazole-3-carboxamide]: the 50% inhibitory concentration (IC50) was 69 nM in experiment [1] and 220 nM in experiment [2].

On to `Cc1nonc1C(=O)N[C@H](c1cn2ncc([C@H](NC(=O)C(F)C3CCC3)C3CC3)cc2n1)C1CCC(F)(F)CC1` (single isomer, unassigned) [Example 349, N—((S)-(7-((R)-((S*)-2-Cyclobutyl-2-fluoroacetamido)(cyclopropyl)methyl)imidazo[1,2-b]pyridazin-2-yl)(4,4-difluorocyclohexyl)methyl)-4-methyl-1,2,5-oxadiazole-3-carboxamide], for which the half-maximal inhibitory concentration (IC50) in experiment [1] worked out at 420 nM; in experiment [2], 1700 nM.

Regarding `Cc1nonc1C(=O)N[C@H](c1cn2ncc([C@H](NC(=O)CC(C)CC(F)(F)F)C3CC3)cc2n1)C1CCC(F)(F)CC1` (single isomer, unassigned) [Example 350, N—((S)-(7-((R)-Cyclopropyl((R*)-5,5,5-trifluoro-3-methylpentanamido)methyl)imidazo[1,2-b]pyridazin-2-yl)(4,4-difluorocyclohexyl)methyl)-4-methyl-1,2,5-oxadiazole-3-carboxamide], the IC50 in experiment [1] was 270 nM; in experiment [2] (Homo sapiens, Keratinocyte), 660 nM.

Turning to `O=C(CCC(F)(F)F)N[C@@H](c1cnn2cc([C@@H](NC(=O)[C@@H]3C[C@H]3C(F)F)C3CCC(F)(F)CC3)nc2c1)C1CC1` (single isomer, unassigned) [Example 360], the IC50 in experiment [1] was 2700 nM; in experiment [2] (Homo sapiens, Keratinocyte), over 20000 nM.

In the case of `O=C(CCC(F)(F)F)N[C@@H](c1cnn2cc([C@@H](NC(=O)[C@H]3C[C@@H]3C(F)F)C3CCC(F)(F)CC3)nc2c1)C1CC1` (single isomer, unassigned) [Example 361], the half-maximal inhibitory concentration (IC50) in experiment [1] turned out to be 210 nM; in experiment [2] (Homo sapiens, Keratinocyte), 1700 nM.

Turning to `CC(O)c1nonc1C(=O)N[C@H](c1cn2ncc([C@H](NC(=O)CC3CC(F)(F)C3)C3CC3)cc2n1)C1CCC(F)(F)CC1` (single isomer, unassigned) [Example 395, N—((S)-(7-((R)-Cyclopropyl(2-(3,3-difluorocyclobutyl)acetamido)methyl)imidazo[1,2-b]pyridazin-2-yl)(4,4-difluorocyclohexyl)methyl)-4-((R*)-1-hydroxyethyl)-1,2,5-oxadiazole-3-carboxamide], the IC50 in experiment [1] is 48 nM; in experiment [2] (Homo sapiens, Keratinocyte), 170 nM.

In the case of `CC(O)c1nonc1C(=O)N[C@H](c1cn2ncc([C@H](NC(=O)CC3CC(F)(F)C3)C3CC3)cc2n1)C1CCC(F)(F)CC1` (single isomer, unassigned) [Example 396, N—((S)-(7-((R)-Cyclopropyl(2-(3,3-difluorocyclobutyl)acetamido)methyl)imidazo[1,2-b]pyridazin-2-yl)(4,4-difluorocyclohexyl)methyl)-4-((S*)-1-hydroxyethyl)-1,2,5-oxadiazole-3-carboxamide], the concentration for half-maximal inhibition (IC50) in experiment [1] came to 50 nM; in experiment [2] it was 190 nM.

`Cc1nonc1C(=O)N[C@H](c1cn2ncc(C(CC#N)NC(=O)CC3CC(F)(F)C3)cc2n1)C1CCC(F)(F)CC1` (single isomer, unassigned) [Example 397, N—((S)-(7-((S*)-2-Cyano-1-(2-(3,3-difluorocyclobutyl)acetamido)ethyl)imidazo[1,2-b]pyridazin-2-yl)(4,4-difluorocyclohexyl)methyl)-4-methyl-1,2,5-oxadiazole-3-carboxamide]: the IC50 in experiment [1] was determined as 120 nM; in experiment [2], 600 nM.

For `N#CCC(NC(=O)CC1CC(F)(F)C1)c1cnn2cc([C@@H](NC(=O)c3nonc3C3CC3)C3CCC(F)(F)CC3)nc2c1` (single isomer, unassigned) [Example 398, N—((S)-(7-((S*)-2-Cyano-1-(2-(3,3-difluorocyclobutyl)acetamido)ethyl)imidazo[1,2-b]pyridazin-2-yl)(4,4-difluorocyclohexyl)methyl)-4-cyclopropyl-1,2,5-oxadiazole-3-carboxamide], the IC50 in experiment [1] was 42 nM; in experiment [2] (Homo sapiens, Keratinocyte), 71 nM.

As to `CC(C)n1nccc1C(=O)N[C@H](c1cn2ncc(C(CC#N)NC(=O)CC3CC(F)(F)C3)cc2n1)C1CCC(F)(F)CC1` (single isomer, unassigned) [Example 399, N—((S)-(7-((S*)-2-Cyano-1-(2-(3,3-difluorocyclobutyl)acetamido)ethyl)imidazo[1,2-b]pyridazin-2-yl)(4,4-difluorocyclohexyl)methyl)-1-isopropyl-1H-pyrazole-5-carboxamide], the values for the IC50 in experiment [1] and in experiment [2] were 310 nM and 94 nM, respectively.

With `O=C(CC1CC(F)(F)C1)NC(CC(F)F)c1cnn2cc([C@@H](NC(=O)c3nonc3C3CC3)C3CCC(F)(F)CC3)nc2c1` (single isomer, unassigned) [Example 400, 4-Cyclopropyl-N—((S)-(7-((R*)-1-(2-(3,3-difluorocyclobutyl)acetamido)-3,3-difluoropropyl)imidazo[1,2-b]pyridazin-2-yl)(4,4-difluorocyclohexyl)methyl)-1,2,5-oxadiazole-3-carboxamide], the IC50 in experiment [1] is 49 nM; in experiment [2] (Homo sapiens, Keratinocyte), 35 nM.

For `O=C(CC1CC(F)(F)C1)N[C@@H](c1cnn2cc([C@@H](NC(=O)c3nonc3C(O)C3CC3)C3CCC(F)(F)CC3)nc2c1)C1CC1` (single isomer, unassigned) [Example 401, N—((S)-(7-((R)-Cyclopropyl(2-(3,3-difluorocyclobutyl)acetamido)methyl)imidazo[1,2-b]pyridazin-2-yl)(4,4-difluorocyclohexyl)methyl)-4-((R*)-cyclopropyl(hydroxy)methyl)-1,2,5-oxadiazole-3-carboxamide], the IC50 in experiment [1] came out at 150 nM; in experiment [2] (Homo sapiens, Keratinocyte), 57 nM.

On to `O=C(CC1CC(F)(F)C1)N[C@@H](c1cnn2cc([C@@H](NC(=O)c3nonc3C(O)C3CC3)C3CCC(F)(F)CC3)nc2c1)C1CC1` (single isomer, unassigned) [Example 402, N—((S)-(7-((R)-Cyclopropyl(2-(3,3-difluorocyclobutyl)acetamido)methyl)imidazo[1,2-b]pyridazin-2-yl)(4,4-difluorocyclohexyl)methyl)-4-((S*)-cyclopropyl(hydroxy)methyl)-1,2,5-oxadiazole-3-carboxamide], for which the IC50 in experiment [1] and in experiment [2] was 110 nM throughout.

These data come from patent publication US11702422B2, “Imidazopyridazines as modulators of IL-17” (Janssen Pharmaceutica NV, priority 2020, dated 2023).
